Results on one compound are retold here after paper PMC3840065, “Structural Insights into the Mechanism for Recognizing Substrate of the Cytochrome P450 Enzyme TxtE” (PLoS ONE, 2013).

For orientation: Kd means the constant that tells how readily two partners part at equilibrium.

Common to all, as to experiment: UV-vis difference titration (type I shift, […] nm)
Format in all cases: binding

For test [1], the target named is T1, TxtE (Streptomyces scabiei, UniProt C9ZDC6).
T1 construct: full length, 406 residues, pET-28a, N-terminal His-tag with thrombin site (tag kept), E. coli Rosetta(DE3) pLysS, monomer in solution

Test [2] deals with T2, TxtE (Streptomyces scabiei, UniProt C9ZDC6, N293L).
T2 construct: full length, 406 residues, pET-28a, N-terminal His-tag with thrombin site (tag kept), E. coli Rosetta(DE3) pLysS, monomer in solution

Test [3] deals with T3, TxtE (Streptomyces scabiei, UniProt C9ZDC6, Y89F).
T3 construct: full length, 406 residues, pET-28a, N-terminal His-tag with thrombin site (tag kept), E. coli Rosetta(DE3) pLysS, monomer in solution
T3 sequence (C9ZDC6 whole entry Y89F): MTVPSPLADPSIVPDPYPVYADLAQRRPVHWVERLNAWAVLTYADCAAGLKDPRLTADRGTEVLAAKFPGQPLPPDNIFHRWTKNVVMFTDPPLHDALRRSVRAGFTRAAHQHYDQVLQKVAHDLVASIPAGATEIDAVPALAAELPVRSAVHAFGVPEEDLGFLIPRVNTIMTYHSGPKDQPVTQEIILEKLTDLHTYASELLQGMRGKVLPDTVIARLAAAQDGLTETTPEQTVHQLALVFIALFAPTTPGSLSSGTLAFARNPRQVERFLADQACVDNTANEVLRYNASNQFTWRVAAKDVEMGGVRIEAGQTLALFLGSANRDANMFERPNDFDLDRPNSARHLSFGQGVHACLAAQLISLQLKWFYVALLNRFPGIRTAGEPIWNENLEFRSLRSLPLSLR

T1 sequence (C9ZDC6 entry or part of it): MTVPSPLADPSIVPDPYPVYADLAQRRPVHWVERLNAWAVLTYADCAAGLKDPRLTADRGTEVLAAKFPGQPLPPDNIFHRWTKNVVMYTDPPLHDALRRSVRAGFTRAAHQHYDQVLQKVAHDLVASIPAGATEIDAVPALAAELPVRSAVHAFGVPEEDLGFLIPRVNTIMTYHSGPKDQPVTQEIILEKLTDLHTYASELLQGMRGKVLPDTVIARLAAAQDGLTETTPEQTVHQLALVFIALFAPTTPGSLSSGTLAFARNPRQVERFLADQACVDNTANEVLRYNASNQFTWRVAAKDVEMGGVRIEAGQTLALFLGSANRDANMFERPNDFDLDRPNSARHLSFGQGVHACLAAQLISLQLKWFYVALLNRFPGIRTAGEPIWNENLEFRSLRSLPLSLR
T2 sequence (C9ZDC6 whole entry N293L): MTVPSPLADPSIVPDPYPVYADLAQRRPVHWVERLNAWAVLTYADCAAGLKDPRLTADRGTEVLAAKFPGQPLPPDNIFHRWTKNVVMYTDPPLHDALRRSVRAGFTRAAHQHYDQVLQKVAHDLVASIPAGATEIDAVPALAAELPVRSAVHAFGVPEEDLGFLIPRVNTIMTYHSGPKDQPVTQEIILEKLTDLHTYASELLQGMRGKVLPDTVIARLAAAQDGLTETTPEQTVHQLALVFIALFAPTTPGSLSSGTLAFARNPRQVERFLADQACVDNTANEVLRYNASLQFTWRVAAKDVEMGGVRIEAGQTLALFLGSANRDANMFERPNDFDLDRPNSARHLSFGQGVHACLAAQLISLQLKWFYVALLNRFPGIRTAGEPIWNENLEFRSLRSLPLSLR

As for `N[C@@H](Cc1c[nH]c2ccccc12)C(=O)O` [L-tryptophan], the Kd on TxtE [1] was 43.6 ± 2.26 µM; at TxtE [2], 1700 ± 280 µM; on TxtE [3], 121 ± 4.3 µM.
